Test results: patent publication US20090227507A1, “Angiotensin (1-7) Dosage Forms and Uses Thereof” (UNIVERSITY OF SOUTHERN CALIFORNIA, priority 2008, published 2009)

Assays:
[1] = 12-lead electrocardiogram in healthy men; assay type: in vivo, human; conditions: Screening or Study Day 8
Text: Safety assessments during the study period included vital sign measurement (systolic [SBP] and diastolic [DBP] blood pressure, heart rate [HR], respiratory rate [RR] in the sitting position, and oral temperature), clinical chemistry, hematology, urinalysis, 12-lead electrocardiogram (ECG) in the supine position, and AE monitoring. Clinical chemistry/hematology samples were drawn within a 30-minute period prior to dosing on selected dosing days.

[2] = system: CD8 cells in peripheral blood; assay: Flow cytometry of peripheral blood, CD8 lymphocytes; USB003 SC once daily for 7 days in healthy men; assay type: in vivo, human; design: key to Subjects with shift, Absolute CD8, N-L (normal to low) / Subjects with shift, Absolute CD8, L-N (low to normal) / Subjects with shift, Absolute CD8, H-N (high to normal) / Subjects with shift, Absolute CD8, N-H (normal to high): — signifies subject with no shift from baseline; conditions: for CD8, Absolute, Mean at Baseline: Baseline (Day 1)
Protocol: • Single-center, randomized, double-blind, placebo-controlled, 2 cohort dose-escalation trial of once daily dosing over a 7-day period (7 doses total): • Cohort 1: 2 subjects treated with placebo and 8 subjects treated with 200 μg/kg USB003 (A(1-7)) • Cohort 2: 2 subjects treated with placebo and 8 subjects treated with 300 μg/kg USB003 • For each cohort, there was a Screening Period, Treatment Phase, Follow-up Period, and Study Termination or Early Withdrawal Day. Subjects were confined to the study unit during the Treatment Phase. • Cohort 2 was treated approximately 1 week after completion of the Treatment Phase for Cohort 1 to allow time for the assessment of safety and tolerability in the first cohort.
Pharmacological Effect: The following evaluations (under efficacy and safety in the protocol) were performed: • Effects on the number of mature blood cells: • 1. CBC (with differential), platelet count, reticulocyte count. • Effects on early hematopoietic progenitor cells and mature lymphocyte subsets in the periphery: • 1. Flow cytometry to evaluate frequency of peripheral blood progenitor cells (eg, CD34^+) and lymphocyte subsets (eg, CD3, CD4, CD8) in peripheral blood. • 2. Collection of blood for later possible culture for progenitor cells (eg, colony forming units-granulocyte/macrophage [CFU-GM]) to evaluate potential effects on CD34^+ hematopoietic progenitor cells in peripheral blood. • 3.
The effect of USB003 on the number of mature blood cells was assessed by the complete blood count with differential, platelet and reticulocyte counts. The effects on early hematopoietic progenitor cells and mature lymphocyte subsets in the periphery were assessed by flow cytometry. In addition, blood was collected and processed to enable culture of progenitors at a later time.
Red blood cell (RBC) count, RBC indices, white blood cell count (WBC) with differential, reticulocyte count, platelet count, hemoglobin (Hb), hematocrit (Hct), plasma hemoglobin, peripheral flow cytometry, including CD34^+, flow cytometry for enumeration of CD3, CD4, and CD8 lymphocytes, and culture for progenitor cells in peripheral blood including colony-forming units-granulocyte/macrophage (CFU-GM).

## Asp-Arg-Val-Tyr-Ile-His-Pro [USB003]
[1]
  12-lead ECG findings: no abnormal CS 12-lead ECGs findings
[2]; 200 μg/kg
  CD8, Absolute, Mean at Baseline: 564.6 cells/μL
[2]; 200 μg/kg, Baseline to Day 8
  Subjects with shift, Absolute CD8, H-N (high to normal): —
  Subjects with shift, Absolute CD8, L-N (low to normal): —
  Subjects with shift, Absolute CD8, N-H (normal to high): 1
  Subjects with shift, Absolute CD8, N-L (normal to low): —
[2]; 200 μg/kg, Baseline to Day 20
  Subjects with shift, Absolute CD8, H-N (high to normal): —
  Subjects with shift, Absolute CD8, L-N (low to normal): —
  Subjects with shift, Absolute CD8, N-H (normal to high): —
  Subjects with shift, Absolute CD8, N-L (normal to low): —
[2]; 200 μg/kg, Day 3
  CD8, Absolute, Mean Change from Baseline: −34.2 cells/μL
[2]; 200 μg/kg, Day 5
  CD8, Absolute, Mean Change from Baseline: 31.9 cells/μL
[2]; 200 μg/kg, Day 7
  CD8, Absolute, Mean Change from Baseline: 0.0 cells/μL
[2]; 200 μg/kg, Day 8
  CD8, Absolute, Mean Change from Baseline: −3.3 cells/μL
[2]; 200 μg/kg, Day 17
  CD8, Absolute, Mean Change from Baseline: −52.8 cells/μL
[2]; 200 μg/kg, Day 20
  CD8, Absolute, Mean Change from Baseline: −31.7 cells/μL
[2]; 300 μg/kg
  CD8, Absolute, Mean at Baseline: 452.1 cells/μL
[2]; 300 μg/kg, Baseline to Day 8
  Subjects with shift, Absolute CD8, H-N (high to normal): —
  Subjects with shift, Absolute CD8, L-N (low to normal): —
  Subjects with shift, Absolute CD8, N-H (normal to high): 1
  Subjects with shift, Absolute CD8, N-L (normal to low): —
[2]; 300 μg/kg, Baseline to Day 20
  Subjects with shift, Absolute CD8, H-N (high to normal): —
  Subjects with shift, Absolute CD8, L-N (low to normal): —
  Subjects with shift, Absolute CD8, N-H (normal to high): —
  Subjects with shift, Absolute CD8, N-L (normal to low): —
[2]; 300 μg/kg, Day 3
  CD8, Absolute, Mean Change from Baseline: 59.5 cells/μL
[2]; 300 μg/kg, Day 5
  CD8, Absolute, Mean Change from Baseline: 71.0 cells/μL
[2]; 300 μg/kg, Day 7
  CD8, Absolute, Mean Change from Baseline: 93.6 cells/μL
[2]; 300 μg/kg, Day 8
  CD8, Absolute, Mean Change from Baseline: 45.1 cells/μL
[2]; 300 μg/kg, Day 17
  CD8, Absolute, Mean Change from Baseline: −47.3 cells/μL
[2]; 300 μg/kg, Day 20
  CD8, Absolute, Mean Change from Baseline: 26.8 cells/μL
